Measurements taken from US20220304958A1, “SMALL MOLECULE INHIBITORS OF A PROTEIN COMPLEX” (THE REGENTS OF THE UNIVERSITY OF CALIFORNIA, priority 2019, published 2022).
Peptide text beside a SMILES is read from it.

Target: T1, HEG1-KRIT1 interaction (Homo sapiens, UniProt O00522)
T1 construct: His6-EGFP-KRIT1 (WT) FERM domain (417-736) and KRIT1 (L717,721A) mutant were cloned into pETM-11; His6 (N); made in house; host or cells: E. coli BL21 Star (DE3)
Test: Flow cytometry assay for the HEG1-KRIT1 FERM domain interaction (competition binding on HEG1 matrix beads)
Conditions: Table 2; flow cytometry-screening assay; NI = no inhibition detected up to 500 μM
Description: Bead Coupling. SPHERO Neutravidin Polystyrene Particles, […] (Spherotech) were washed twice with wash buffer (20 mM Tris, 150 mM NaCl. pH 7.4 containing 0.01% NP-40, and 1 mM EDTA). Prior to incubation with biotin-tagged HEG 1 cytoplasmic tail protein, an appropriate volume of bead slurry was passivated to inhibit non-specific binding by incubation for 30 minutes at room temperature in reaction buffer containing 0.1% BSA (20 mM Tris, 150 mM NaCl, pH 7.4 0.01% NP-40, 1 mM EDTA, 1 mM DTT, and 0.1% BSA). Passivated beads were collected by centrifugation, resuspended to 3,600 particles/μl in reaction buffer and biotinylated HEG1 tail was added to a final concentration of 150 nM and incubated overnight on a rotator at 4° C. The beads were washed three times by centrifugation with ice-cold reaction buffer to remove unbound HEG1 peptide. Beads were diluted such that a final concentration of 2000 beads/μL were available for addition to assay plates.
Flow cytometry assay. A final volume of 100 μl containing 140 nM EGFP-KRIT1 FERM domain, with 10% DMSO or 10% compounds in DMSO, was incubated for 15 minutes at room temperature on a rotator. 100 μl of beads were added to the mixture for a final volume of 200 μl at 1,000 particles/μl with 70 nM EGFP-KRIT1 and incubated for 15 minutes at room temperature on a rotator. The control beads were: without KRIT1 (minimum signal); with KRIT1 (maximum signal); and with KRIT1 plus 2 μM HEG1 7-mer (positive blocking control). The EGFP fluorescence was measured using a BD Accuri flow cytometer. For screening purposes, the final volume of the reaction was scaled down to 10 μl and samples were processed as previously described (27). For FIGS. 1D-1F, 2B, and 3E, a representative experiment is shown of at the least 3 independent repeats.
Assay plate assembly. Plate assays were performed in 384-well microtiter plates (Greiner Bio-one, #784101). Reaction buffer. HEG1-coupled beads, and EGFP-KRIT-FERM constructs were added using a MultiFlo™ Microplate Dispenser (BioTek Instruments, Inc.). Compounds were added to single-point assay plates pre-loaded with reaction buffer using a Biomek^NX liquid handler (BeckmanCoulter) equipped with a […] pintool (V & P Scientific, Inc.). Compound libraries were dispensed to a final concentration of 10 μM. An equal volume (10 nL) of DMSO was added to the vehicle control wells. Following the addition of library compounds, 5 μL of assay buffer was added and the plates were mixed before addition of 5 μL of the protein-coupled bead mixtures; Plates were protected from light and incubated on a rotator for 15 minutes at room temperature. Binding of EGFP-KRIT to HEG1 coupled beads was evaluated using an Accuri C6 flow cytometer.
Data Acquisition. Assay plates were sampled using the HyperCyt™ high throughput flow cytometry platform (Intellicyt; Albuquerque, N. Mex.). During sampling, the probe moves from well to well and samples 1-2 μL from each well pausing 0.4 sec in the air before sampling the next well. The resulting sample stream consisting of 384 separated samples is delivered to an Accuri C6 flow cytometer (BD Biosciences; San Jose, Calif.). Plate data are acquired as time-resolved files that are parsed by software-based well identification algorithms and merged with compound library files. Plate performance was validated using the Z-prime calculation (28).
Compounds that satisfied hit selection criteria in the primary screen were cherry-picked from compound storage plates and tested to confirm activity and determine potency. Dose response data points were fitted by Prism software (GraphPad Software Inc., San Diego, Calif.) using nonlinear least-squares regression in a sigmoidal dose-response model with variable slope, also known as the 4-parameter logistic equation.

T1 sequence (O00522 417-736): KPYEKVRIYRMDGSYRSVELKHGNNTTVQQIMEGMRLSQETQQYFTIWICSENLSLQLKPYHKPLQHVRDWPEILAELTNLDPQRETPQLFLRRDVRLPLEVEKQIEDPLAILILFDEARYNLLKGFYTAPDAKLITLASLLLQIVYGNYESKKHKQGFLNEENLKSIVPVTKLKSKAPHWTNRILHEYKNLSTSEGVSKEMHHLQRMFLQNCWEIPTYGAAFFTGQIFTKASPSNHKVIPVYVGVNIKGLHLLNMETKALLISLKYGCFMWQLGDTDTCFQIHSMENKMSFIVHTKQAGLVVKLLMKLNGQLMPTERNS

IC50 (μM) | Structure (SMILES)
precipitation | Oc1ccc2ccccc2c1/C=N/c1ncn[nH]1 [BL-0550, (E)-1-(((1H-1,2,4-triazol-5-yl)imino)methy)naphthalen-2-ol]
precipitation | Oc1ccc2ccccc2c1/C=N/c1cccnc1 [BL-0551, (E)-1-((pyridin-3-ylimino)methyl)naphthalen-2-ol]
precipitation | COC(=O)c1ccccc1NC(=O)c1c(O)ccc2ccccc12 [BL-0589, methyl 2-(2-hydroxy-1-naphthamido)benzoate]

Same assay, conditions: Table 2; flow cytometry-screening assay; NI = no inhibition detected up to 500 μM; read-out: IC50

Structure (SMILES) | IC50
O=C(O)c1ccccc1NCc1c(O)ccc2ccccc12 [BL-0588, 2-(((2-hydroxynaphthalen-1-yl)methyl)amino)benzoic acid] | > 500 µM
O=C(O)c1ccccc1NC(=O)c1c(O)ccc2ccccc12 [BL-0590, 2-(2-hydroxy-1-naphthamido)benzoic acid] | > 500 µM
ON=Cc1c(O)ccc2ccccc12 [BL-0591, 2-hydroxy-l-naphthaldehyde oxime] | > 500 µM
NCc1c(O)ccc2ccccc12 [BL-0592, 1-(aminomethyl)naphthalen-2-ol] | > 500 µM
c1ccc2c(c1)ccc1oncc12 [BL-0593, naphtho[1,2-d]isoxazole] | > 500 µM
O=C(O)c1ccccc1C#Cc1c(O)ccc2ccccc12 [BL-0604, 2-((2-hydroxynaphthalen-1-yl)ethynyl)benzoic acid] | > 500 µM
O=C(O)c1ccccc1/C=C/c1c(O)ccc2ccccc12 [BL-0605, (E)-2-(2-(2-hydroxynaphthalen-1-yl)vinyl)benzoic acid] | > 500 µM
O=C(O)c1ccccc1CCc1c(O)ccc2ccccc12 [BL-0606, 2-(2-(2-hydroxynaphthalen-1-yl)ethyl)benzoic acid] | > 500 µM
O=Cc1nccc2ccccc12 [BL-0607, Isoquinoline-1-carbaldehyde] | > 500 µM
O=Cc1cc(-c2ccccc2)ccc1O [BL-0628 (HKi4), 4-Hydroxy-[1,1′-biphenyl]-3-carbaldehyde] | 21.8 µM
Oc1ccc2c(/C=N/c3ccccc3)c(O)ccc2c1 [BL-0661 (HKi7), 1-((phenylimino)methyl)naphthalene-2,6-diol] | 32 µM
O=Cc1c(O)ccc2cccc(O)c12 [BL-0693, 2,8-dihydroxy-1-naphthaldehyde] | 45 µM
OC1(c2cccc3ccccc23)COC1 [BL-0695, 3-(naphthalen-1-yl)oxetan-3-ol] | > 500 µM
CC(=O)c1ccc2c(C=O)c(O)ccc2c1 [BL-0700 (HKi9), 6-acetyl-2-hydroxy-1-naphthaldehyde] | 58.6 µM
OCC(CO)c1c(O)ccc2ccccc12 [BL-703, 2-(2-hydroxynaphthalen-1-yl)propane-1,3-diol] | > 500 µM
CS(=O)(=O)c1c(O)ccc2ccccc12 [BL-704, 1-(Methylsulfonyl)naphthalen-2-ol] | > 500 µM
C[S+]([O-])c1c(O)ccc2ccccc12 (centres unmarked) [BL-705, 1-(Methylsulfinyl)naphthalen-2-ol] | > 500 µM
Oc1ccc2ccccc2c1C(O)C(F)(F)F (centres unmarked) [BL-706, 1-(2,2,2-Trifluoro-1-hydroxyethyl)naphthalen-2-ol] | > 500 µM
CSc1c(O)ccc2ccccc12 [BL-707, 1-(methylthio)naphthalen-2-ol] | > 500 µM
CC(O)c1c(O)ccc2ccccc12 (centres unmarked) [BL-0713, 1-(1-hydroxyethyl)naphthalen-2-ol] | > 500 µM
O=Cc1c(O)ccc2cc(N3CCC3=O)ccc12 [BL-0738, 2-Hydroxy-6-(2-oxoazetidin-1-yl)-1-naphthaldehyde] | 30.3 µM
CCCCc1ccc2c(C=O)c(O)ccc2c1 [BL-0743, 6-Butyl-2-hydroxy-1-naphthaldehyde] | 78.8 µM
CCOC(=O)/C=C/c1ccc2c(C=O)c(O)ccc2c1 [BL-0744, Ethyl (E)-3-(5-formyl-6-hydroxynaphthalen-2-yl)acrylate] | 79.3 µM
CC(O)c1ccc2c(C=O)c(O)ccc2c1 (centres unmarked) [BL-0745, 2-Hydroxy-6-(1-hydroxyethyl)-1-naphthaldehyde] | 31.9 µM
CC(NC(=O)c1ccccc1N)c1ccccc1 (centres unmarked) [Compound 4, 2-amino-N-(1-phenylethyl)benzamide] | > 500 µM
CC(N)c1ccccc1N (centres unmarked) [Compound 5, 2-(1-aminoethyl)aniline] | > 500 µM
O=Cc1ccccc1O [Compound 16, Salicylaldehyde] | > 500 µM

Second part, the compound after the results:

IC50 | Structure (SMILES)
2.9 µM | O=C(O)c1ccccc1/N=C/c1c(O)ccc2ccccc12 [BL-0547 (Hki3), (E)-2-(((2-hydroxynaphthalen-1-yl)methylene)amino)benzoic acid]
3.2 µM | Oc1ccc2ccccc2c1/C=N/c1nn[nH]n1 [BL-0549, (E)-1-(((1H-tetrazol-5-yl)imino)methyl)naphthalen-2-ol]
1.8 µM | O=C(O)c1ccc(/N=C/c2c(O)ccc3ccccc23)cc1 [BL-0552, (E)-4-(((2-hydroxynaphthalen-1-yl)methylene)amino)benzoic acid]
3.2 µM | O=C(O)c1cccc(/N=C/c2c(O)ccc3ccccc23)c1 [BL-0558, (E)-3-(((2-hydroxynaphthalen-1-yl)methylene)amino)benzoic acid]
5.1 µM | Cc1ccc2c(C=O)c(O)ccc2c1 [BL-0666 (HKi8), 2-hydroxy-6-methyl-1-naphthaldehyde]
18 µM | COc1cccc2ccc(O)c(C=O)c12 [BL-0691, 2-hydroxy-8-methoxy-1-naphthaldehyde]
3.2 µM | O=Cc1c(O)ccc2cc(Cl)ccc12 [BL-702 (Hki10), 6-chloro-2-hydroxy-1-naphthaldehyde]
28.8 µM | O=Cc1c(O)ccc2cc(N3CCCCC3)ccc12 [BL-0736, 2-Hydroxy-6-(piperidin-1-yl)-1-naphthaldehyde]
2.6 µM | CN(C)c1ccc2c(C=O)c(O)ccc2c1 [BL-0737, 6-(Dimethylamino)-2-hydroxy-1-naphthaldehyde]
1.1 µM | C=CCc1ccc2c(C=O)c(O)ccc2c1 [BL-0739, 6-Allyl-2-hydroxy-1-naphthaldehyde]
3.9 µM | CCc1ccc2c(C=O)c(O)ccc2c1 [BL-0740, 6-Ethyl-2-hydroxy-1-naphthaldehyde]
4 µM | C#Cc1ccc2c(C=O)c(O)ccc2c1 [BL-0742, 6-Ethynyl-2-hydroxy-1-naphthaldehyde]
3.6 µM | N#Cc1ccc2c(C=O)c(O)ccc2c1 [BL-0788, 5-Formyl-6-hydroxy-2-naphthonitrile]
4.6 µM | CCOc1ccc2c(C=O)c(O)ccc2c1 [BL-0794, 6-Ethoxy-2-hydroxy-1-naphthaldehyde]
15 µM | CC#Cc1ccc2c(C=O)c(O)ccc2c1 [BL-0817, 2-Hydroxy-6-(prop-1-yn-1-yl)-1-naphthaldehyde]
3 µM | O=Cc1c(O)ccc2cc(-c3ccccc3)ccc12 [BL-0818, 2-Hydraxy-6-phenyl-1-naphthaldehyde]
1.2 µM | O=Cc1c(O)ccc2cc(-c3cccs3)ccc12 [BL-0819, 2-Hydroxy-6-(thiophen-2-yl)-1-naphthaldehyde]

Same assay, conditions: blocking of GFP-KRIT1 FERM domain binding to HEG1 matrix beads; read-out: IC50

Structure (SMILES) | IC50
N=C(N)NCCC[C@H](NC(=O)[C@H](CCCNC(=N)N)NC(=O)[C@H](CCCNC(=N)N)NC(=O)[C@@H](N)CO)C(=O)N[C@@H](CC(=O)O)C(=O)N[C@@H](Cc1ccc(O)cc1)C(=O)N[C@@H](Cc1ccccc1)C(=O)O [HEG1 C-terminus 7-mer peptide, reference compound] (H-SRRRDYF-OH; N-terminus and C-terminus assumed) | 0.41 µM

Same assay, conditions: inhibition of the HEG1-KRIT1 interaction, flow cytometry assay

IC50 | Structure (SMILES)
no inhibition | O=Cc1nccc2ccccc12 [BL-0607, Isoquinoline-1-carbaldehyde]
did not exhibit detectable activity | O=Cc1ccccc1O [Compound 16, Salicylaldehyde]
